# Assay results reported in US20240166635A1, “AMINOHETEROARYL KINASE INHIBITORS” (Anrui Biomedical Technology (Guangzhou) Co.,Ltd., priority 2020, published 2024).
# Assays:
# Type in all cases: biochemical
# CDK6/CyclinD1 = CDK6/CyclinD1 (Homo sapiens (Human), UniProt Q00534); assay: CDK6/CyclinD1 kinase inhibitory activity (Caliper mobility shift); conditions: read-out: CDK6/Cyclin D1 IC50
# CDK2/CyclinE1 = CDK2/CyclinE1 (Homo sapiens (Human), UniProt P24941); assay: CDK2/CyclinE1 kinase inhibitory activity (Caliper mobility shift); conditions: read-out: CDK2/Cyclin El IC50
# CDK7/CyclinH/MAT1 = CDK7/CyclinH/MAT1 (Homo sapiens (Human), UniProt P50613); assay: CDK7/CyclinH/MAT1 kinase inhibitory activity (Caliper mobility shift)
# CDK1/CyclinB = CDK1/CyclinB (Homo sapiens (Human), UniProt P06493); assay: CDK1/CyclinB kinase inhibitory activity (Caliper mobility shift); conditions: read-out: CDK1/Cyclin B1 IC50
# CDK9/CyclinT1 = CDK9/CyclinT1 (Homo sapiens (Human), UniProt P50750); assay: CDK9/CyclinT1 kinase inhibitory activity (Caliper mobility shift); conditions: read-out: CDK9/Cyclin T1 IC50
# Chain of CDK9/CyclinT1 (P50750 whole entry): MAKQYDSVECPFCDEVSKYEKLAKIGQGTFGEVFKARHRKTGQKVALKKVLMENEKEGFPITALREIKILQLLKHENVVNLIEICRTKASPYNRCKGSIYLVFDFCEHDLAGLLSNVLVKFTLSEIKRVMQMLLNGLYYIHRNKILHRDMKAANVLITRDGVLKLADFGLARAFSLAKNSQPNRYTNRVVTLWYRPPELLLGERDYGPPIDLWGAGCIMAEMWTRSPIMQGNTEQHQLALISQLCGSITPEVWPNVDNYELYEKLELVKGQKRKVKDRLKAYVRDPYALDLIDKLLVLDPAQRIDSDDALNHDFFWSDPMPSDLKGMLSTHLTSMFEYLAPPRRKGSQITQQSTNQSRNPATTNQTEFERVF
# Chain of CDK9/CyclinT1 (O60563 whole entry partner): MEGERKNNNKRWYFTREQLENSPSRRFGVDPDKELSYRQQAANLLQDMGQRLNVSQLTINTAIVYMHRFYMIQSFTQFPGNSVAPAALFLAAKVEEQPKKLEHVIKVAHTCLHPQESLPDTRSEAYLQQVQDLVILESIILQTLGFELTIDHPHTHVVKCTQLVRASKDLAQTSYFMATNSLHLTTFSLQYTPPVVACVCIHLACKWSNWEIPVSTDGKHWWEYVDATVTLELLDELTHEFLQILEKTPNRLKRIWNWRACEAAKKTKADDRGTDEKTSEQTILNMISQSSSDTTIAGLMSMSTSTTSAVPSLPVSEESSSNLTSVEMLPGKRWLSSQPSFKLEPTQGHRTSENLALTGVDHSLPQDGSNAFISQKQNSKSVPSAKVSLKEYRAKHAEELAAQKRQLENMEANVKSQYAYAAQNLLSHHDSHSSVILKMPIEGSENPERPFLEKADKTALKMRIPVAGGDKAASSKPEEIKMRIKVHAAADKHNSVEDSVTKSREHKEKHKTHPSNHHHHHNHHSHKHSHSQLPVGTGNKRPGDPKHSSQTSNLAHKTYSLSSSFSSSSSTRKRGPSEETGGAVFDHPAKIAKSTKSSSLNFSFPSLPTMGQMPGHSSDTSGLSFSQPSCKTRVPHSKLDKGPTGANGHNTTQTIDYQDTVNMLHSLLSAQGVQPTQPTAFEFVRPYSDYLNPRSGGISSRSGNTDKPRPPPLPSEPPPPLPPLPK
# Chain of CDK6/CyclinD1 (Q00534 whole entry): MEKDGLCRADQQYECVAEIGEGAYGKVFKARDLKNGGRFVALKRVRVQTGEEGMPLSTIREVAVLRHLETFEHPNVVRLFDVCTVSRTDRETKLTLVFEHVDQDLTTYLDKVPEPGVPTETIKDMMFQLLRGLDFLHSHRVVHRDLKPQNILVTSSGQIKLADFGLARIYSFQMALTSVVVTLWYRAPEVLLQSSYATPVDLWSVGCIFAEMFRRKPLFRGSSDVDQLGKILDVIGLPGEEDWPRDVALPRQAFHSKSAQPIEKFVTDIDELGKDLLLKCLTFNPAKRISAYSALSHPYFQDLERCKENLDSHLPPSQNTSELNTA
# Chain of CDK6/CyclinD1 (P24385 whole entry partner): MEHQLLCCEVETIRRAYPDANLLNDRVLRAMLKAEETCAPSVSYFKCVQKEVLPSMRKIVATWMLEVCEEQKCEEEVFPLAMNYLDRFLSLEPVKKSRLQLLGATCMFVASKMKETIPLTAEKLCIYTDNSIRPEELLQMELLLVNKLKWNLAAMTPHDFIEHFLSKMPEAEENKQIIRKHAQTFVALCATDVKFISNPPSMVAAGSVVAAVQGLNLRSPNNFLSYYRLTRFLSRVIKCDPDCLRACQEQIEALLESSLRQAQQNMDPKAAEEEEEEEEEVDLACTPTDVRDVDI
# Chain of CDK7/CyclinH/MAT1 (P50613 whole entry): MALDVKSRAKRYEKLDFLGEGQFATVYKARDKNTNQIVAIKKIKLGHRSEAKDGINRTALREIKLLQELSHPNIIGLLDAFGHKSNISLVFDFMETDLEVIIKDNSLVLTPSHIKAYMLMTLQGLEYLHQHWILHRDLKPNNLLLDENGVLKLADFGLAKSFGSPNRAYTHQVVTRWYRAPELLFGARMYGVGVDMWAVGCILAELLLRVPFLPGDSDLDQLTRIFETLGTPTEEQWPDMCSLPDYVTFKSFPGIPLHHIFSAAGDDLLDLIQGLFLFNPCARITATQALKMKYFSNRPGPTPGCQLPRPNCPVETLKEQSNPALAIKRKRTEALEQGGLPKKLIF
# Chain of CDK7/CyclinH/MAT1 (P51946 whole entry partner): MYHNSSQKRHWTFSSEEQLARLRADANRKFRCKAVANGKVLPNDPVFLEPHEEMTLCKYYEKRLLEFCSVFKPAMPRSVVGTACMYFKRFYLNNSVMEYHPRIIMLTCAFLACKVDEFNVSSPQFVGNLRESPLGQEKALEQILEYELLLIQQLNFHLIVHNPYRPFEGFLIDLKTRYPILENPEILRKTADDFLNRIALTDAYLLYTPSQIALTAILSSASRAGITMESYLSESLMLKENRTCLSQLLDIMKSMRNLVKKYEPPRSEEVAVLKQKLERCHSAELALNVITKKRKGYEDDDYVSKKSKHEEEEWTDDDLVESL
# Chain of CDK7/CyclinH/MAT1 (P51948 whole entry partner): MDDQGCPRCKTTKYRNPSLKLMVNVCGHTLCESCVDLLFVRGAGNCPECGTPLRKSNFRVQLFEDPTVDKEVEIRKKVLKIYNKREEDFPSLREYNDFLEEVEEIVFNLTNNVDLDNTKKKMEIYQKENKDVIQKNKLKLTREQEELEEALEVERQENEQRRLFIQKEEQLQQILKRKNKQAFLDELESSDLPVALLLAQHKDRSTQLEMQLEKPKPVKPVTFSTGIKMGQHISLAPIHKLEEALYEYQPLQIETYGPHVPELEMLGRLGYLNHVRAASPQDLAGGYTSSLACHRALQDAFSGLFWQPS
# Chain of CDK1/CyclinB (P06493 whole entry): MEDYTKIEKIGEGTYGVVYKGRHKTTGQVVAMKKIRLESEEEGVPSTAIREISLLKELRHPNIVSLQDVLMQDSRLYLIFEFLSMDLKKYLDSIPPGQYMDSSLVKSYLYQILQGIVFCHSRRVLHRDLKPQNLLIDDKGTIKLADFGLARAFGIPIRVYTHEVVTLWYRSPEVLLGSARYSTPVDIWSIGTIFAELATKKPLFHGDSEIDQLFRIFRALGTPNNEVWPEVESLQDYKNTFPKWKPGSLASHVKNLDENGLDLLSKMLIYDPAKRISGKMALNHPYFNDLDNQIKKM
# Chain of CDK1/CyclinB (P14635 whole entry partner): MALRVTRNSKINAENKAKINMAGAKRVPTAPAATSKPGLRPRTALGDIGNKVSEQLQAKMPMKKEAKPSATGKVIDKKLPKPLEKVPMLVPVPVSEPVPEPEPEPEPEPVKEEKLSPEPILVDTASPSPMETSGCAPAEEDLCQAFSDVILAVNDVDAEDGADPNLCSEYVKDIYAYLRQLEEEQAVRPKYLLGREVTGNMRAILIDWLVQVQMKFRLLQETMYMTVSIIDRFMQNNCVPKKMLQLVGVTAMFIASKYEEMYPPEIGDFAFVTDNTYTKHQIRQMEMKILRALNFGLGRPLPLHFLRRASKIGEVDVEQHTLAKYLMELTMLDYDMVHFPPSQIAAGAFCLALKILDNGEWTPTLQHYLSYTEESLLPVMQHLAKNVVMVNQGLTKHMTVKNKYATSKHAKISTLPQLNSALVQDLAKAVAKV
IC50 (CDK6/CyclinD1) [nM],IC50 (CDK2/CyclinE1) [nM],IC50 (CDK7/CyclinH/MAT1) [nM],IC50 (CDK1/CyclinB) [nM],IC50 (CDK9/CyclinT1) [nM],SMILES
100 to 1000,< 10,,,,"CNS(=O)(=O)c1ccc(Nc2ncc(C(F)(F)F)c(O[C@H]3CCCOC[C@H]3O)n2)cc1 (single isomer, unassigned) [Example 103b, cis-4-((4-((3-hydroxyoxepan-4-yl)oxy)-5-(trifluoromethyl)pyrimidin-2-yl)amino)-N-(methyl-d3)benzenesulfonamide]"
,< 10,10 to 100,10 to 100,10 to 100,"NS(=O)(=O)N1CCC(Nc2ncc(C(F)(F)F)c(OC3CCCCCC3O)n2)CC1 (single isomer, unassigned) [Example 122b]"
,< 10,100 to 1000,10 to 100,100 to 1000,N#Cc1cnc(Nc2ccc(S(N)(=O)=O)cc2)nc1N1CCC[C@H](O)C1 [Example 69]
,< 10,100 to 1000,< 10,< 10,"NS(=O)(=O)c1ccc(Nc2ncc(C(F)(F)F)c(OC3CCCCCC3O)n2)cc1 (single isomer, unassigned) [Example 118a]"
100 to 1000,,≥ 1000,100 to 1000,,"[2H]C([2H])([2H])NS(=O)(=O)c1ccc(Nc2ncc(C(F)(F)F)c(OC3CCOCCC3O)n2)cc1 (single isomer, unassigned) [Example 102c, 4-((4-((5-hydroxyoxepan-4-yl)oxy)-5-(trifluoromethyl)pyrimidin-2-yl)amino)-N-(methyl-d3)benzenesulfonamide]"
,10 to 100,≥ 1000,100 to 1000,100 to 1000,N#Cc1cnc(Nc2ccc(S(N)(=O)=O)cc2)nc1N1CCCC1 [Example 67]
,10 to 100,≥ 1000,100 to 1000,100 to 1000,N#Cc1cnc(Nc2ccc(S(N)(=O)=O)cc2)nc1N1CCC[C@@H](O)C1 [Example 70]
100 to 1000,,100 to 1000,10 to 100,,"[2H]C([2H])([2H])NS(=O)(=O)c1ccc(Nc2ncc(C(F)(F)F)c(OC3CCOCCC3O)n2)cc1 (single isomer, unassigned) [Example 102b, 4-((4-((5-hydroxyoxepan-4-yl)oxy)-5-(trifluoromethyl)pyrimidin-2-yl)amino)-N-(methyl-d3)benzenesulfonamide]"
,< 10,,10 to 100,10 to 100,"NS(=O)(=O)c1ccc(Nc2ncc(C(F)(F)F)c(OC3CCCCCC3O)n2)cc1 (single isomer, unassigned) [Example 118b]"
,< 10,,10 to 100,100 to 1000,"NS(=O)(=O)c1ccc(Nc2ncc(Br)c(OC3CCCC3O)n2)cc1 (single isomer, unassigned) [Example 141b]"
,< 10,,10 to 100,100 to 1000,"CC1(O)CCCC1Oc1nc(Nc2ccc(S(N)(=O)=O)cc2)ncc1C1CC1 (single isomer, unassigned) [Example 154b]"
,10 to 100,,100 to 1000,100 to 1000,"CS(=O)(=O)N1CCC(Nc2ncc(C(F)(F)F)c(OC3CCCCCC3O)n2)CC1 (single isomer, unassigned) [Example 121b]"
,10 to 100,,10 to 100,100 to 1000,"CC1(O)CCCCC1Oc1nc(Nc2ccc(S(N)(=O)=O)cc2)ncc1C#N (single isomer, unassigned) [Example 24b]"
,< 10,10 to 100,10 to 100,,"NS(=O)(=O)c1ccc(Nc2ncc(C(F)(F)F)c(OC3COCCC3O)n2)cc1 (single isomer, unassigned) [Example 115a]"
,10 to 100,,100 to 1000,100 to 1000,"NS(=O)(=O)c1ccc(Nc2ncc(C(F)(F)F)c(OC3CCOCC3O)n2)cc1 (single isomer, unassigned) [Example 114b]"
,< 10,,10 to 100,100 to 1000,"CC(C)NS(=O)(=O)c1ccc(Nc2ncc(Cl)c(OC3CCCC3O)n2)cc1 (single isomer, unassigned) [Example 138b]"
,10 to 100,,≥ 1000,≥ 1000,"[2H]C([2H])([2H])NS(=O)(=O)c1ccc(Nc2ncc(CC)c(OC3COCCC3(C)O)n2)cc1 (single isomer, unassigned) [Example 153b]"
,10 to 100,,100 to 1000,≥ 1000,"CCS(=O)(=O)N1CCC(Nc2ncc(C#N)c(OC3CCCC3(C)O)n2)CC1 (single isomer, unassigned) [Example 36a]"
,10 to 100,,100 to 1000,≥ 1000,"N#Cc1cnc(Nc2ccc(S(=O)(=O)NC3CC(F)(F)C3)cc2)nc1OC1CCCCC1O (single isomer, unassigned) [Example 32b]"
,10 to 100,,≥ 1000,≥ 1000,"[2H]C([2H])([2H])NS(=O)(=O)c1ccc(Nc2ncc(CC)c(OC3CCOCC3(C)O)n2)cc1 (single isomer, unassigned) [Example 152b]"

IC50 (CDK6/CyclinD1) [nM],IC50 (CDK2/CyclinE1) [nM],IC50 (CDK7/CyclinH/MAT1) [nM],IC50 (CDK1/CyclinB) [nM],IC50 (CDK9/CyclinT1) [nM],SMILES
,10 to 100,,100 to 1000,≥ 1000,"N#Cc1cnc(Nc2ccc(S(N)(=O)=O)cc2)nc1O[C@@H]1CCCC[C@@H]1O (single isomer, unassigned) [Example 2b, cis-4-((5-cyano-4-((2-hydroxycyclohexyl)oxy)pyrimidin-2-yl)amino)benzenesulfonamide]"
,< 10,10 to 100,10 to 100,100 to 1000,"CS(=O)(=O)N1CCC(Nc2ncc(C(F)(F)F)c(OC3CCCCCC3O)n2)CC1 (single isomer, unassigned) [Example 121a]"
,< 10,,10 to 100,100 to 1000,"CNS(=O)(=O)c1ccc(Nc2ncc(Cl)c(OC3CCCC3O)n2)cc1 (single isomer, unassigned) [Example 137b]"
,10 to 100,≥ 1000,100 to 1000,≥ 1000,CS(=O)(=O)N1CCC(Nc2ncc(C#N)c(N3CCCCC3)n2)CC1 [Example 89]
,< 10,,10 to 100,100 to 1000,"O=S(=O)(NC1CC1)c1ccc(Nc2ncc(C(F)(F)F)c(OC3CCCC3O)n2)cc1 (single isomer, unassigned) [Example 107b]"
,10 to 100,,100 to 1000,100 to 1000,"[2H]C([2H])([2H])NS(=O)(=O)c1ccc(Nc2ncc(CC)c(OC3CCCC3O)n2)cc1 (single isomer, unassigned) [Example 149b]"
,< 10,,100 to 1000,100 to 1000,"[2H]C1([2H])CC(O)C(Oc2nc(Nc3ccc(S(=O)(=O)NC([2H])([2H])[2H])cc3)ncc2C(F)(F)F)C1 (single isomer, unassigned) [Example 110b]"
,< 10,,10 to 100,100 to 1000,"NS(=O)(=O)c1ccc(Nc2ncc(C(F)(F)F)c(O[C@H]3[C@@H]4CC[C@@H](C4)[C@H]3O)n2)cc1 (single isomer, unassigned) [Example 113b]"
,< 10,,10 to 100,100 to 1000,"CC(C)NS(=O)(=O)c1ccc(Nc2ncc(C#N)c(OC3CCCC3(C)O)n2)cc1 (single isomer, unassigned) [Example 35b]"
,10 to 100,,100 to 1000,100 to 1000,"N#Cc1cnc(Nc2ccc(S(N)(=O)=O)cc2)nc1OC1CCCC(O)C1 (single isomer, unassigned) [Example 21b]"
,< 10,,< 10,10 to 100,CC1CCCC1Oc1nc(Nc2ccc(S(N)(=O)=O)cc2)ncc1C#N (stereo not drawn) [Example 11]
,10 to 100,,100 to 1000,100 to 1000,"N#Cc1cnc(Nc2ccc(S(N)(=O)=O)cc2)nc1OC1CCCC1CO (single isomer, unassigned) [Example 18a]"
,< 10,,100 to 1000,100 to 1000,"NS(=O)(=O)c1ccc(Nc2ncc(C(F)(F)F)c(O[C@H]3[C@@H]4CC[C@@H](C4)[C@H]3O)n2)cc1 (single isomer, unassigned) [Example 113a]"
100 to 1000,,≥ 1000,100 to 1000,,"[2H]C([2H])([2H])NS(=O)(=O)c1ccc(Nc2ncc(C(F)(F)F)c(OC3CCOCCC3O)n2)cc1 (single isomer, unassigned) [Example 102d, 4-((4-((5-hydroxyoxepan-4-yl)oxy)-5-(trifluoromethyl)pyrimidin-2-yl)amino)-N-(methyl-d3)benzenesulfonamide]"
,< 10,,100 to 1000,100 to 1000,"CC(C)NS(=O)(=O)c1ccc(Nc2ncc(C#N)c(OC3CCC(O)C3)n2)cc1 (single isomer, unassigned) [Example 29a]"
,10 to 100,,100 to 1000,100 to 1000,"Cc1cnc(Nc2ccc(S(N)(=O)=O)cc2)nc1O[C@@H]1CCC[C@@H]1O (single isomer, unassigned) [Example 132b, cis-4-((4-((2-hydroxycyclopentyl)oxy)-5-methylpyrimidin-2-yl)amino)benzenesulfonamide]"
,< 10,,10 to 100,100 to 1000,"CC(C)NS(=O)(=O)c1ccc(Nc2ncc(C#N)c(OC3CCC(O)C3)n2)cc1 (single isomer, unassigned) [Example 29b]"
,10 to 100,,100 to 1000,100 to 1000,C[C@@H]1C[C@@H](O)CCN1c1nc(Nc2ccc(S(N)(=O)=O)cc2)ncc1C#N [Example 76]
,10 to 100,,≥ 1000,≥ 1000,"[2H]C([2H])([2H])NS(=O)(=O)c1ccc(Nc2ncc(Cl)c(OC3COCC3(C)O)n2)cc1 (single isomer, unassigned) [Example 140b]"
,< 10,,100 to 1000,100 to 1000,"[2H]C([2H])([2H])NS(=O)(=O)c1ccc(Nc2ncc(Br)c(OC3CCCC3O)n2)cc1 (single isomer, unassigned) [Example 143b]"
